Measurements from patent US12029731B2, “Acyl benzo[d]thiazol-2-amine and their methods of use” (Biohaven Pharmaceutical Holding Company Ltd., priority 2016, dated 2024).
“Also recorded” adds a separate entry of the source.

Key:
C8161 cells [1] = conditions: positive control, in comparison with no treatment and DMSO treated; cited from earlier work
[2] = test system: Stage III and IV melanoma; assay: Phase 0 human clinical trial of riluzole in melanoma patients; type: in vivo; conditions: after only 14 days of treatment
Text: We have recently shown that riluzole has dramatic anti-melanoma activity in vitro cellular assays, in mice and in a Phase 0 human clinical trial. […] However, the therapeutic utility of riluzole itself in ALS and eventually for melanoma is very constrained by rapid first-pass metabolism in the liver and an exceptionally high level of patient-to-patient variability in the extent of the Cyp1A2-mediated oxidative metabolism that is observed.

C8161 cells [3] = conditions: C8161 human melanoma cells; cited from earlier work

SMILES: Nc1nc2ccc(OC(F)(F)F)cc2s1 [riluzole]
- C8161 cell growth (C8161 cells [1]): dose-dependent suppression
- patients with clinical or radiologic evidence of tumor response [2]: four of 12; also recorded: four of twelve
- effect on excess cellular glutamate (C8161 cells [3]): inhibits excess cellular gluatamate
